Assay results taken from paper PMC11714206, “Massively Parallel Screening of Toll/Interleukin‐1 Receptor (TIR)‐Derived Peptides Reveals Multiple Toll‐Like Receptors (TLRs)‐Targeting Immunomodulatory Peptides” (Advanced Science, 2024).
Where “and” joins values, the source holds several entries; their conditions need not be identical. Equal entries are not always repeated.

Target: T1, MyD88^TIR (Homo sapiens, UniProt Q99836)
T1 construct: MyD88 (residues 148–296); 6xHis; made in house; host or cells: E. coli BL21 (DE3)
T1 sequence (Q99836 148-296): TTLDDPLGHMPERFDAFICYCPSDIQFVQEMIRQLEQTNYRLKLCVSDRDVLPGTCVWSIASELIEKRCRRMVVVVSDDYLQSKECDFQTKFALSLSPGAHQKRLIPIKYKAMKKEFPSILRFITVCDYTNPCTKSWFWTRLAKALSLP
Test: T‐Surf phage library (P8 and P3) selection against MyD88^TIR, four rounds, NGS read counts
Format: binding
Conditions: for P3_MyD88 Rank (after) / P3_MyD88 Rank (before): P3 library; for P8_MyD88 Rank (after) / P8_MyD88 Rank (before): P8 library; for Population: 4th round of selection against MyD88 TIR, share of NGS reads
In short: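 Read counts come from NGS of phage pools after the fourth selection round, barcoded by 20-cycle PCR and filtered for quality ≥30. Each round: phage incubated 1 h at RT on immobilised TIR protein (5 µg mL^−1, BSA-blocked), washed, HCl-eluted and amplified in E. coli TG1.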

[1] = P3_MyD88: rank by count after grouping
[2] = P3_MyD88: rank by count before grouping
[3] = 4R selection against MyD88, rank after grouping
[4] = 4R selection against MyD88, rank before grouping
[5] = selection against MyD88, rank by count after grouping
[6] = selection against MyD88, rank by count before grouping
[7] = selection against MyD88 TIR, rank by count after grouping
[8] = selection against MyD88 TIR, rank by count before grouping
[9] = P8_MyD88: rank by count after grouping
[10] = P8_MyD88: rank by count before grouping
[11] = P8_MyD88 pool: P8 T-Surf phage library
[12] = P3_MyD88 pool: P3 T-Surf phage library
[13] = selection against MyD88, rank after grouping
[14] = selection against MyD88, rank before grouping

## NELVHVWCCKANSQAG
[1]
  Rank (after): 420
[2]
  Rank (before): 3407

## NELVHVWRSKANRLVG
[3]
  P3_MyD88 Rank (after): 646
[4]
  P3_MyD88 Rank (before): 3408

## NELVHVWSSKANIRVC
[5]
  P3_MyD88 Rank (after): 718
[6]
  P3_MyD88 Rank (before): 3399

## NELVHVWSSKANSLVG
[5]
  P8_MyD88 Rank (after): 696
[6]
  P8_MyD88 Rank (before): 3874

## NELVHVWSSKANSLVGQ
[1]
  Rank (after): 186
[2]
  Rank (before): 1250

## NELVHVWSSKANSLW
[7]
  P3_MyD88 Rank (after): 262
[8]
  P3_MyD88 Rank (before): 3420

## NELVHVWSSKANTWW
[3]
  P3_MyD88 Rank (after): 628
[4]
  P3_MyD88 Rank (before): 3431

## NELVKVWSSKANRLVG
[1]
  Rank (after): 393
[2]
  Rank (before): 3447

## NELVNVWSSKANSQVG
[5]
  P3_MyD88 Rank (after): 691
[6]
  P3_MyD88 Rank (before): 3451

## NELVQVWSSKANSLVR
[5]
  P3_MyD88 Rank (after): 693
[6]
  P3_MyD88 Rank (before): 3400

## NELVRVWSSKANSRVG
[5]
  P3_MyD88 Rank (after): 716
[6]
  P3_MyD88 Rank (before): 3402

## NERGHVWSSKANSLVG
[3]
  P3_MyD88 Rank (after): 615
[4]
  P3_MyD88 Rank (before): 3454

## NERVHVWSSKAKSLVG
[1]
  Rank (after): 443
[2]
  Rank (before): 3453

## NEWVNAWTSKANRRVG
[3]
  P3_MyD88 Rank (after): 602
[4]
  P3_MyD88 Rank (before): 3395

## NFANSSWALDELWLIL
[9]
  Rank (after): 132
[10]
  Rank (before): 145
[11]
  Population: 0.0116%

## NFGYSTWALDELVKIM
[9]
  Rank (after): 123
[10]
  Rank (before): 132
[11]
  Population: 0.0135%

## NFVEYFVYQMMPDILE
[9]
  Rank (after): 153
[10]
  Rank (before): 167
[11]
  Population: 0.00886%

## NGHENEIIKEIVETIV
[7]
  P3_MyD88 Rank (after): 205
[8]
  P3_MyD88 Rank (before): 3381

## NGHESEIIKEIVDTFM
[7]
  P3_MyD88 Rank (after): 243
[8]
  P3_MyD88 Rank (before): 1232

## NGHESEIIKEIVDTM
[1]
  Rank (after): 436
[2]
  Rank (before): 3365

## NGHESEIITVIVDTIV
[7]
  P3_MyD88 Rank (after): 221
[8]
  P3_MyD88 Rank (before): 3351

## NGHESENIKEIVDTIL
[7]
  P3_MyD88 Rank (after): 212
[8]
  P3_MyD88 Rank (before): 3377

## NGQSSRFKDDADLVGQ
[5]
  P3_MyD88 Rank (after): 678
[6]
  P3_MyD88 Rank (before): 3337

## NHDLDLPRGKAIKPEILG
[3]
  P3_MyD88 Rank (after): 606
[4]
  P3_MyD88 Rank (before): 3460

## NHHLDLPRGKAIKPEILG
[12]
  Population: 0.00524%

## NHHLDPPRGKANKPGILG
[5]
  P3_MyD88 Rank (after): 702
[6]
  P3_MyD88 Rank (before): 3461

## NLSGWHILDGFLFDEF
[9]
  Rank (after): 125
[10]
  Rank (before): 134
[11]
  Population: 0.0131%

## NNFSAFLFEALFENGI
[9]
  Rank (after): 181
[10]
  Rank (before): 240

## NNLFNELVSKNIRTLM
[7]
  P3_MyD88 Rank (after): 237
[8]
  P3_MyD88 Rank (before): 3559

## NPADLDWFYERLVSLF
P8_MyD88: rank by NGS read count after grouping
  Rank (after): 939
P8_MyD88: rank by NGS read count before grouping
  Rank (before): 3878

## NQCRNALTAAANLSGC
[1]
  Rank (after): 149
[2]
  Rank (before): 3467

## NQCRNFLTAAANLSGW
[1]
  Rank (after): 164
[2]
  Rank (before): 3465

## NQGRNALTAAADLSGW
[5]
  P3_MyD88 Rank (after): 697
[6]
  P3_MyD88 Rank (before): 3541

## NQLRNAQTAAANLSGW
[7]
  P3_MyD88 Rank (after): 233
[8]
  P3_MyD88 Rank (before): 3463

## NQQRFGGKVDAWKAAL
[7]
  P3_MyD88 Rank (after): 281
[8]
  P3_MyD88 Rank (before): 3542

## NQWHNALTAAANLSGW
[12]
  Population: 0.00291%

## NQWLNSLTAPANPSDW
[1]
  Rank (after): 396
[2]
  Rank (before): 3469

## NQWPNALTAAANLRGW
[1]
  Rank (after): 132
[2]
  Rank (before): 3534

## NQWRFGSKVDAWKAAL
[13]
  P3_MyD88 Rank (after): 577
[14]
  P3_MyD88 Rank (before): 3470

## NQWRHALTAEANLSGW
[1]
  Rank (after): 408
[2]
  Rank (before): 3472

## NQWRKALTSAANLSGW
[5]
  P3_MyD88 Rank (after): 703
[6]
  P3_MyD88 Rank (before): 3528

## NQWRNALIAAVNLSGC
[5]
  P3_MyD88 Rank (after): 700
[6]
  P3_MyD88 Rank (before): 3485

## NQWRNALTAAAHLTGW
[5]
  P3_MyD88 Rank (after): 721
[6]
  P3_MyD88 Rank (before): 3494

## NQWRNALTAAANLA
[12]
  Population: 0.00291%

## NQWRNALTAAANLGGL
[5]
  P3_MyD88 Rank (after): 701
[6]
  P3_MyD88 Rank (before): 3513

## NQWRNALTAAANLIGR
[13]
  P3_MyD88 Rank (after): 532
[14]
  P3_MyD88 Rank (before): 3499

## NQWRNALTAAANLSGC
[12]
  Population: 0.00291%

## NQWRNALTAAANLSGEFG
[3]
  P3_MyD88 Rank (after): 604
[4]
  P3_MyD88 Rank (before): 3505

## NQWRNALTAAANLSGW
[12]
  Population: 0.00437% and 0.00378% and 0.0032%
[5]
  P8_MyD88 Rank (after): 734
[6]
  P8_MyD88 Rank (before): 3881

## NQWRNALTAAANLSLS
[3]
  P3_MyD88 Rank (after): 675
[4]
  P3_MyD88 Rank (before): 3507

## NQWRNALTAAANLV
[12]
  Population: 0.00378%

## NQWRNALTAAASLSGW
[12]
  Population: 0.00291%

## NQWRNALTAAAYMSCR
[1]
  Rank (after): 463
[2]
  Rank (before): 3492

## NQWRNALTATANLSGC
[1]
  Rank (after): 419
[2]
  Rank (before): 3517

## NQWRNALTEAAHLSGW
[3]
  P3_MyD88 Rank (after): 663
[4]
  P3_MyD88 Rank (before): 3520

## NQWRNALTKVASL
[12]
  Population: 0.00378%

## NQWRNAQTAAANLNGW
[7]
  P3_MyD88 Rank (after): 256
[8]
  P3_MyD88 Rank (before): 3525

## NQWRNELTPAANLSGW
[5]
  P3_MyD88 Rank (after): 698
[6]
  P3_MyD88 Rank (before): 3527

## NQWRNSRTAAANLSGW
[1]
  Rank (after): 122
[2]
  Rank (before): 3476

## NQWRSSPTAWASLSFA
[13]
  P3_MyD88 Rank (after): 530
[14]
  P3_MyD88 Rank (before): 3474

## NRWRNALTAAANLRGG
[13]
  P3_MyD88 Rank (after): 510
[14]
  P3_MyD88 Rank (before): 3457

## NSFREGLWRLVELSKK
[13]
  P3_MyD88 Rank (after): 535
[14]
  P3_MyD88 Rank (before): 3557

## NSSWALEELVKIMEAM
[9]
  Rank (after): 186
[10]
  Rank (before): 239

## NVHESEIIKEIVDTIV
[12]
  Population: 0.00291%

## NYAASEWALRELIQIM
[13]
  P8_MyD88 Rank (after): 528
[14]
  P8_MyD88 Rank (before): 3837

## NYADSSWALDELLAIM
[9]
  Rank (after): 164
[10]
  Rank (before): 184
[11]
  Population: 0.00732%

## NYASSPWALDELVKIF
[7]
  P8_MyD88 Rank (after): 197
[8]
  P8_MyD88 Rank (before): 295

## NYASSSWALDELLRILY
[9]
  Rank (after): 155
[10]
  Rank (before): 238

## NYASSSWALNELLEILK
[13]
  P8_MyD88 Rank (after): 506
[14]
  P8_MyD88 Rank (before): 3849

## NYASSTFALNELHYILRFI
[13]
  P8_MyD88 Rank (after): 496
[14]
  P8_MyD88 Rank (before): 3852

## NYATSRWALDELVRIF
[7]
  P8_MyD88 Rank (after): 227
[8]
  P8_MyD88 Rank (before): 419

## NYGSNSWALNELLEIL
[11]
  Population: 0.00848%

## NYGSNSWALNKLLEIL
[13]
  P8_MyD88 Rank (after): 492
[14]
  P8_MyD88 Rank (before): 3834

## NYGSSSWALEELAHIIE
[3]
  P8_MyD88 Rank (after): 665
[4]
  P8_MyD88 Rank (before): 3831

## NYTSSSWALDEQWNIF
[3]
  P8_MyD88 Rank (after): 653
[4]
  P8_MyD88 Rank (before): 3860

## PDEVKRTVGLTFSLSL
[5]
  P8_MyD88 Rank (after): 739
[6]
  P8_MyD88 Rank (before): 3407

## PEKANGGENAFFNNIV
[13]
  P3_MyD88 Rank (after): 566
[14]
  P3_MyD88 Rank (before): 2705
